Measured values from ChEMBL document CHEMBL1147242, “Briarlides, briarane diterpenes from a gorgonian Briareum sp” (J Nat Prod, 2003).
In brackets after ≈: the same amount, converted by molar mass.

Experiments:
[1] = Cytotoxicity against african green monkey Vero cells; type: cell-based; settings: chlorocebus sabaeus
[2] = Cytotoxicity against MDCK cells; type: cell-based, Canis lupus familiaris; settings: dog

| Compound | CC50 [1] [µg/mL] | CC50 [2] [µg/mL] |
| --- | --- | --- |
| CC(=O)O[C@@H]1[C@H]2[C@](C)(O)[C@H](O)C=C[C@]2(C)[C@@H](O)[C@H](OC(C)=O)C/C(C)=C\[C@@H]2OC(=O)[C@]3(C)O[C@@]213 [BRIARLIDE H] | > 100 | > 100 |
| CCCCCCCC(=O)O[C@H]1/C(C)=C\[C@@H]2OC(=O)[C@]3(C)O[C@]23[C@H](OC(C)=O)[C@H]2[C@](C)(O)[C@H](OC(C)=O)C=C[C@]2(C)[C@@H](OC(C)=O)[C@@H]1O [BRIARLIDE D] | 2.26 (≈ 3.4 µM) | 2.49 (≈ 3.75 µM) |
| CCCCCCCC(=O)O[C@@H]1[C@@H](O)/C(C)=C\[C@@H]2OC(=O)[C@]3(C)O[C@]23[C@H](OC(C)=O)[C@H]2[C@](C)(O)[C@H](OC(C)=O)C=C[C@]2(C)[C@H]1OC(C)=O [BRIARLIDE F] | 4.26 (≈ 6.41 µM) | 3.49 (≈ 5.25 µM) |
| CCCCCC(=O)O[C@H]1/C(C)=C\[C@@H]2OC(=O)[C@]3(C)O[C@]23[C@H](OC(C)=O)[C@H]2[C@](C)(O)[C@H](OC(C)=O)C=C[C@]2(C)[C@@H](OC(C)=O)[C@@H]1O [BRIARLIDE E] | 4.24 (≈ 6.66 µM) | 4.91 (≈ 7.71 µM) |
| CC(=O)O[C@@H]1[C@H]2[C@](C)(O)[C@H](OC(C)=O)C=C[C@]2(C)[C@@H](OC(C)=O)[C@H](O)[C@@H](OC(C)=O)/C(C)=C\[C@@H]2OC(=O)[C@]3(C)O[C@@]213 [BRIARLIDE B] | 18.9 (≈ 32.6 µM) | 15.4 (≈ 26.5 µM) |
| CC(=O)O[C@@H]1[C@H]2[C@](C)(O)[C@H](OC(C)=O)C=C[C@]2(C)[C@@H](O)[C@H](O)[C@@H](OC(C)=O)/C(C)=C\[C@@H]2OC(=O)[C@]3(C)O[C@@]213 [BRIARLIDE C] | 62.1 (≈ 115 µM) | 38.6 (≈ 71.7 µM) |
| CC(=O)O[C@@H]1[C@H]2[C@](C)(O)[C@H](OC(C)=O)C=C[C@]2(C)[C@@H](OC(C)=O)[C@H](OC(C)=O)C/C(C)=C\[C@@H]2OC(=O)[C@]3(C)O[C@@]213 [BRIARLIDE G] | 22.2 (≈ 39.3 µM) | 67.1 (≈ 119 µM) |
| CC(=O)O[C@@H]1[C@@H](OC(C)=O)/C(C)=C\[C@@H]2OC(=O)[C@]3(C)O[C@]23[C@H](OC(C)=O)[C@H]2[C@](C)(O)[C@H](OC(C)=O)C=C[C@]2(C)[C@H]1OC(C)=O [BRIARLIDE A] | 2.07 (≈ 3.32 µM) | 4.74 (≈ 7.61 µM) |
| CC(=O)O[C@@H]1[C@@H](OC(C)=O)/C(C)=C\[C@@H]2OC(=O)[C@]3(C)O[C@]23[C@H](OC(C)=O)[C@H]2[C@](C)(O)[C@H](O)C=C[C@]2(C)[C@H]1OC(C)=O [VIOLIDE B] | 9.8 (≈ 16.9 µM) | 28.8 (≈ 49.6 µM) |
